In patent publication US5631394A, “Pharmaceutically active ceramide-related compounds” (The Liposome Company, Inc., priority 1995, dated 1997):

Key:
A549 cells [1] = assay: sulforhodamine B cytotoxicity assay, 72 hour drug exposure, A549; type: cell-based; conditions: Homo sapiens
RPMI 7666 cells = assay: sulforhodamine B cytotoxicity assay, 72 hour drug exposure, RPMI 7666; type: cell-based
Description: (§1) These studies were performed using a sulforrhodamine B assay (see Monks et al., J. Natl. Cancer Inst. (U.S.) 83:757 ([…])). Compounds were dissolved in ethanol. Results from these studies, presented in the following tables, are expressed as Gl50 values, that is, concentration of a drug (micromolar) required to inhibit growth of fifty percent of the cells.

U937 cells = assay: sulforhodamine B cytotoxicity assay, 72 hour drug exposure, U937; type: cell-based; conditions: Homo sapiens, U-937
Description: as §1

LEWIS LUNG cells = assay: sulforhodamine B cytotoxicity assay, 72 hour drug exposure, Lewis lung; type: cell-based
A549 cells [2] = assay: in vitro sensitivity at different drug exposure times, A549; type: cell-based; conditions: Homo sapiens
Description: as §1

MCF 7/ADR cells = assay: in vitro sensitivity at different drug exposure times, MCF 7/ADR; type: cell-based; conditions: Homo sapiens, NCI/ADR-RES
Description: as §1

MCF7 cells = assay: sulforhodamine B cytotoxicity assay, 72 hour drug exposure, MCF7; type: cell-based
MCF7/ADR cells = assay: sulforhodamine B cytotoxicity assay, 72 hour drug exposure, MCF7/ADR; type: cell-based
CAKI 1 cells = assay: sulforhodamine B cytotoxicity assay, 72 hour drug exposure, CAKI 1; type: cell-based
OVCAR 3 cells = assay: sulforhodamine B cytotoxicity assay, 72 hour drug exposure, OVCAR 3; type: cell-based; conditions: Homo sapiens, OVCAR-3, 72 h
HT 29 cells = assay: sulforhodamine B cytotoxicity assay, 72 hour drug exposure, HT 29; type: cell-based
SKMEL 28 cells = assay: sulforhodamine B cytotoxicity assay, 72 hour drug exposure, SKMEL 28; type: cell-based; conditions: Homo sapiens, SK-MEL-28, 72 h
P388 cells = assay: sulforhodamine B cytotoxicity assay, 72 hour drug exposure, P388; type: cell-based; conditions: Mus musculus
Description: as §1

P388/ADR cells = assay: sulforhodamine B cytotoxicity assay, 72 hour drug exposure, P388/ADR; type: cell-based; conditions: Mus musculus
Description: as §1

mice = assay: in vivo toxicity after i.v. injection in mice
C3H10T1/2 cells = assay: sulforhodamine B cytotoxicity assay, 72 hour drug exposure, C3H10T1/2; type: cell-based; conditions: Mus musculus, C3H 10T1/2
Description: as §1

[3] = Homo sapiens, NCI/ADR-RES, 72 h

| Structure (SMILES) | GI50 (A549 cells [1]) [µM] | GI50 (RPMI 7666 cells) [µM] | GI50 (U937 cells) [µM] | GI50 (LEWIS LUNG cells; Lewis lung carcinoma) [µM] | GI50 (A549 cells [1]; A549, 72 h) [µM] | GI50 (LEWIS LUNG cells; Lewis lung carcinoma, 72 h) [µM] | GI50 (A549 cells [2]; 1 hour pulse) [µM] | GI50 (A549 cells [2]; 4 hour pulse) [µM] | GI50 (A549 cells [2]; 8 hour pulse) [µM] | GI50 (A549 cells [2]; 24 hour pulse) [µM] | GI50 (A549 cells [2]; 48 hour pulse) [µM] | GI50 (A549 cells [2]; 72 hour continuous exposure) [µM] | GI50 (MCF 7/ADR cells; 1 hour pulse) [µM] | GI50 (MCF 7/ADR cells; 4 hour pulse) [µM] | GI50 (MCF 7/ADR cells; 8 hour pulse) [µM] | GI50 (MCF 7/ADR cells; 24 hour pulse) [µM] | GI50 (MCF7 cells; Homo sapiens, MCF7, 72 h) [µM] | GI50 (MCF7/ADR cells; [3]) [µM] | GI50 (OVCAR 3 cells) [µM] | GI50 (HT 29 cells; Homo sapiens, HT-29, 72 h) [µM] | further results |
| --- | --- | --- | --- | --- | --- | --- | --- | --- | --- | --- | --- | --- | --- | --- | --- | --- | --- | --- | --- | --- | --- |
| CCCCCCCCCCCCC/C=C/[C@@H](O[Si](C)(C)C(C)(C)C)[C@H](CO[Si](C)(C)C(C)(C)C)NC(=O)CCCCC [1,3-DiTBDMS C6-Ceramide, 1,3 DiTBDMS C6 Cer] | > 200 | > 200 | 134 ± 28.8 | > 200 | – | – | – | – | – | – | – | – | – | – | – | – | – | – | – | – | – |
| CCCCCCCCCCCCC/C=C/[C@@H](O)[C@H](COC(C)=O)NC(=O)CCCCC [1-Acetate C6-Ceramide, 1-acetate, C6-ceramide] | – | 9 ± 2 | 11.3 ± 1 | – | 12.7 ± 7.6 | 8.5 ± 0.4 | 92.9 ± 1.3 | 44.1 ± 1.3 | 35.3 ± 2.5 | 7.2 ± 0.2 | 4.35 ± 0.1 | 5.1 ± 0.1 | > 100 | 59.5 ± 1.4 | 42.7 ± 1.2 | 19.5 ± 0.8 | – | – | – | – | GI50 (MCF 7/ADR cells; 48 hour pulse): 15.6 ± 0.9 µM; GI50 (MCF 7/ADR cells; 72 hour continuous exposure): 16.7 ± 1.7 µM |
| CCCCCCCCCCCCC/C=C/[C@@H](O)[C@H](CO)NCCCCCC [N-Hexyl Sphingosine, n-hexyl sphingosine] | – | – | – | – | 4.9 ± 0.1 | 4.9 ± 0.1 | – | – | – | – | – | – | – | – | – | – | 4.8 ± 0.1 | 5.57 ± 1.17 | 4.99 ± 0.05 | 5.2 ± 0.1 | GI50 (MCF7 cells; listed as N-C6 Sphingosine): 4.74 ± 0.09 µM; GI50 (MCF7/ADR cells; listed as N-C6 Sphingosine): 4.69 ± 0.1 µM; GI50 (LEWIS LUNG cells; listed as N-C6 Sphingosine): 4.61 ± 0.04 µM; GI50 (CAKI 1 cells; Homo sapiens, CAKI-1, 72 h): 6.84 ± 3.62 µM; GI50 (CAKI 1 cells; listed as N-C6 Sphingosine): 4.28 ± 0.04 µM; GI50 (HT 29 cells; listed as N-C6 Sphingosine): 5.03 ± 0.06 µM; GI50 (SKMEL 28 cells): 4.94 ± 0.66 µM; GI50 (P388 cells): 2.59 ± 0.3 µM; GI50 (P388/ADR cells): 2.61 ± 1.7 µM; Number of Animals Dead (mice; 12.5 mg/kg): 0/2; Number of Animals Dead (mice; 25 mg/kg): 0/2; Number of Animals Dead (mice; 50 mg/kg): 0/2; Number of Animals Dead (mice; 100 mg/kg): 2/2 |
| CCCCCCCCCCCCC/C=C/[C@@H](OC(=O)CCC)[C@H](CO[Si](C)(C)C(C)(C)C)NC(=O)CCCCC [1-TBDMS-3-Butyrate C6-Cer, 1-TBDMS,3-butyrate, C6-Cer] | > 200 | > 200 | > 200 | > 200 | – | – | – | – | – | – | – | – | – | – | – | – | – | – | – | – | GI50 (C3H10T1/2 cells): > 200 µM |
| CCCCCCCCCCCCCC(O)C(O)[C@@H](O)[C@H](CO)NC(=O)CCCCC (stereo partly shown) [4,5-Diol C6-Ceramide, 4,5-diol C6-Cer] | – | – | – | – | 25.1 ± 0.3 | – | – | – | – | – | – | – | – | – | – | – | 20.7 ± 0.1 | 28.3 ± 1.1 | 38.2 ± 2.3 | 14.6 ± 0.4 | GI50 (LEWIS LUNG cells; Mus musculus, Lewis lung carcinoma, 72 h): 15.2 µM |
| CCCCCCCCCCCCC/C=C/[C@@H](O[Si](C)(C)C(C)(C)C)[C@H](CO)NC(=O)CCCCC [3-TBDMS C6-Ceramide, 3-TBDMS C6-Cer] | > 200 | > 200 | > 200 | > 200 | – | – | – | – | – | – | – | – | – | – | – | – | – | – | – | – | GI50 (C3H10T1/2 cells): > 200 µM |
| CCCCCCCCCCCCC/C=C/[C@@H](O)[C@H](CO)NCCCCCCCCCC | – | – | – | – | 4.99 ± 0.08 | 6.71 ± 1.04 | – | – | – | – | – | – | – | – | – | – | 5.13 ± 0.01 | 6.19 ± 0.43 | 12.5 ± 0.85 | 14.5 ± 0.14 | GI50 (CAKI 1 cells; Homo sapiens, CAKI-1, 72 h): 6.18 ± 0.01 µM; GI50 (SKMEL 28 cells): 13 µM |
| CCCCCCCCCCCCC/C=C/[C@@H](O)[C@H](COC(=O)C(C)C)NC(=O)CCCCC [1-Isobutyrate C6-Ceramide, 1-isobutyrate, C6-ceramide] | – | – | – | – | 7.9 ± 3.5 | – | > 100 | > 100 | 40.2 ± 2.5 | 8.4 ± 0.7 | 5.2 ± 0.3 | 5.6 ± 0.2 | > 100 | > 100 | 52.3 ± 1.6 | 22.7 ± 1.1 | – | 37.8 ± 4.67 | – | – | GI50 (MCF 7/ADR cells; 48 hour pulse): 18.7 ± 0.5 µM; GI50 (MCF 7/ADR cells; 72 hour continuous exposure): 19.6 ± 1 µM |
| CCCCCCCCCCCCC/C=C/[C@@H](O)[C@H](CO)NCCCCCCCC | – | – | – | – | 4.91 ± 0.01 | 5.05 ± 0.02 | 31.2 ± 5 | 12.8 ± 1 | 6.7 ± 0.2 | 5 ± 0.1 | 4.8 ± 0.1 | 5 | 34.3 ± 4.2 | 14.2 ± 1.2 | 8.9 ± 0.2 | 4.8 ± 0.1 | 4.88 ± 0.11 | 4.88 ± 0.04 | 5.41 ± 0.13 | 5.72 ± 0.24 | GI50 (CAKI 1 cells; Homo sapiens, CAKI-1, 72 h): 4.64 ± 0.07 µM; GI50 (SKMEL 28 cells): 4.96 ± 0.03 µM; GI50 (MCF 7/ADR cells; 48 hour pulse): 4.62 ± 0.1 µM; GI50 (MCF 7/ADR cells; 72 hour continuous exposure): 5 ± 0.1 µM |
